In PubChem BioAssay AID588639 (Sanford-Burnham Center for Chemical Genomics, 2011):
Where “and” joins values, the source holds several entries; their conditions need not be identical. Identical values can stand only once. Calls of active or inactive are those of the source. The rule behind the calls is not given here.

Target: Alkaline phosphatase, tissue-nonspecific isozyme (Homo sapiens) (UniProt P05186)
Assay: human TNAP enzyme inhibitors, SAR follow-up, selectivity assay for mouse IAP inhibitor project, biochemical, set 2 (AID 588639)
Settings: purified human TNAP enzyme activity, counter-screen for mouse IAP

Chain of Alkaline phosphatase, tissue-nonspecific isozyme (Homo sapiens) (P05186 whole entry, looked up): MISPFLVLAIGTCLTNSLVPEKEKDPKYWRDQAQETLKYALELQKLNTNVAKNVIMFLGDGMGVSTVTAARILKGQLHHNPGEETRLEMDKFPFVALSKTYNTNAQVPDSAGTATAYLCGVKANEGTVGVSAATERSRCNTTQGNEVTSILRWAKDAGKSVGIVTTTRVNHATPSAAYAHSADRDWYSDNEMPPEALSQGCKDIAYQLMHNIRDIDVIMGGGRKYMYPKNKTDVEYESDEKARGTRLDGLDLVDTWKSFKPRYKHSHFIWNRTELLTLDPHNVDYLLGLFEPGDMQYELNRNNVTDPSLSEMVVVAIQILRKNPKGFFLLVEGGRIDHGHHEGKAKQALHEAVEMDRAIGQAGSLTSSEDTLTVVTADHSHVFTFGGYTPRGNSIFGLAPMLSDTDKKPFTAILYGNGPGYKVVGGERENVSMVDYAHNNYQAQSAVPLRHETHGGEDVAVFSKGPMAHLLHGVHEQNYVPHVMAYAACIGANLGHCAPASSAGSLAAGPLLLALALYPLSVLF

| IC50 | Structure (SMILES) |
| --- | --- |
| > 100 µM (inactive) | COc1ccc(NC(=O)CCCNS(=O)(=O)c2ccc3[nH]c(=O)oc3c2)c(OC)c1 |
| > 100 µM (inactive) | O=C(N/N=C/c1ccc(F)c(Br)c1)c1cc(O)c(O)c(O)c1 |
| > 100 µM (inactive) | C/C(=N\NC(=O)c1cc(O)c(O)c(O)c1)c1ccc(O)cc1O |
| > 100 µM (inactive) | O=C(CCS(=O)(=O)Nc1ccc2[nH]c(=O)oc2c1)NCc1cccc(F)c1 |
| > 100 µM (inactive) | COc1ccc(CNC(=O)C2CCCN(S(=O)(=O)c3ccc4[nH]c(=O)oc4c3)C2)cc1 (stereo not drawn) |
| > 100 µM (inactive) | CC(C)c1ccc(NC(=O)C2CCCN(S(=O)(=O)c3ccc4c(c3)oc(=O)n4C)C2)cc1 (stereo not drawn) |
| > 100 µM (inactive) | O=C(CCNS(=O)(=O)c1ccc2[nH]c(=O)oc2c1)NCc1ccc2c(c1)OCO2 |
| > 100 µM (inactive) | CC(C)(C)c1ccc(/C=N/NC(=O)c2cc(O)c(O)c(O)c2)cc1 |
| > 100 µM (inactive) | Cc1ccccc1CNC(=O)CCCNS(=O)(=O)c1ccc2[nH]c(=O)oc2c1 |
| > 100 µM (inactive) | O=C(NN=Cc1ccccc1F)c1ccc(O)cc1 |
| > 100 µM (inactive) | CN(C)c1ccc(CNC(=O)C2CCCN(S(=O)(=O)c3ccc4[nH]c(=O)oc4c3)C2)cc1 (stereo not drawn) |
| > 100 µM (inactive) | O=C(CCNS(=O)(=O)c1ccc2[nH]c(=O)oc2c1)NCc1cccc(C(F)(F)F)c1 |
| > 100 µM (inactive) | COc1ccc(/C=N/NC(=O)c2cc(O)c(O)c(O)c2)cc1OC |
| > 100 µM (inactive) | N#Cc1cccc(NC(=O)CNS(=O)(=O)c2ccc3[nH]c(=O)oc3c2)c1 |
| > 100 µM (inactive) | COc1cccc(NC(=O)CCNS(=O)(=O)c2ccc3c(c2)oc(=O)n3C)c1 |
| > 100 µM (inactive) | O=C(NCc1ccccc1)C1CCCN(S(=O)(=O)c2ccc3[nH]c(=O)oc3c2)C1 (stereo not drawn) |
| > 100 µM (inactive) | COc1ccc(CNC(=O)CCCNS(=O)(=O)c2ccc3[nH]c(=O)oc3c2)c(OC)c1 |
| > 100 µM (inactive) | COc1ccc(CNC(=O)CCCNS(=O)(=O)c2ccc3[nH]c(=O)oc3c2)cc1OC |
| > 100 µM (inactive) | COc1ccc(NC(=O)CCNS(=O)(=O)c2ccc3c(c2)CCC3)cc1OC |
| > 100 µM (inactive) | O=C(N/N=C/c1ccccc1F)c1ccccc1OCc1ccccc1 |
| > 100 µM (inactive) | COc1ccc(CNC(=O)CNS(=O)(=O)c2ccc3[nH]c(=O)oc3c2)cc1 |
| > 100 µM (inactive) | Cc1ccc(NC(=O)CCNS(=O)(=O)c2ccc3c(c2)oc(=O)n3C)cc1C |
| > 100 µM (inactive) | Cc1ccc(C)c(NC(=O)CCNS(=O)(=O)c2ccc3[nH]c(=O)oc3c2)c1 |
| > 100 µM (inactive) | O=C(N/N=C/c1c(F)cccc1Cl)c1cc(O)c(O)c(O)c1 |
| > 100 µM (inactive) | COc1ccccc1CNC(=O)CCNS(=O)(=O)c1ccc2[nH]c(=O)oc2c1 |
| 74.4 µM and 65.5 µM | COc1ccc(NC(=O)CCNS(=O)(=O)c2ccc3[nH]c(=O)oc3c2)cc1OC |
| > 100 µM (inactive) | N#Cc1cccc(NS(=O)(=O)c2ccc3[nH]c(=O)oc3c2)c1 |
| > 100 µM (inactive) | O=C(N/N=C/c1c(Cl)cccc1Cl)c1cc(O)c(O)c(O)c1 |
